The series is described as follows: recombinant UMI read abundance after kanamycin selection (control-corrected) (log10(CPM+1)); higher = more efficient recombination; extreme values may be limits of the assay; sequences stand for … in AGTGCAGAGAAAATCGGCCAGTTTTCTCTGCCTGCAGTCCGCATGCCGTGGGACCCCTTGGGTTCTAACCTGTTGCCTAGATTTATGCAGCGGACTGCCTTTCTCCCAAAGTGATAAACCGG…AGGTTGGTTTCACT; site = the 11-nt donor. A digest of the protocol:
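Two replicates each of selected and unselected plating were used in this pooled Escherichia coli screen of donor and donor-binding-loop pairs for the IS621 bridge recombinase. Selection was with IPTG (0.07 mM) and kanamycin. Counts of recombinant UMIs, amplified across the donor–target junction, were converted to CPM, averaged, scaled by control-derived factors and reported as log10(CPM+1).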
For “GTCTAACCATGGACCGGTTTTCCCGGTAATCCGTATTTGTC (site GTCTAACCTGA)”, the “recombinant UMI read abundance (log10)” value stood at 0. Next, “GTCTACACATGGACCGGTTTTCCCGGTAATCCGTATTTGAG (site GTCTACACTCT)”: 0.832; “GTCTACACATGGACCGGTTTTCCCGGTAATCCGTATTTGCT (site ATCTACACTAG)”: 1.33; “GTCTACACATGGACCGGTTTTCCCGGTAATCCGTATTTGCT (site CTCTACACTAG)”: 1.44. The result for “GTCTACACATGGACCGGTTTTCCCGGTAATCCGTATTTGCT (site GTCTACACTAG)” reads 2.05; that for “GTCTACACATGGACCGGTTTTCCCGGTAATCCGTATTTGCT (site TTCTACACTAG)”, 1.44; that for “GTCTAGACATGGACCGGTTTTCCCGGTAATCCGTATTTGCA (site GTCTAGACTTG)”, 2.13. Regarding “GTCTGCCCATGGACCGGTTTTCCCGGTAATCCGTATTTGCG (site GTCTGCCCTCG)”, the “recombinant UMI read abundance (log10)” value worked out at 0.0315.

“GTCTTCCCATGGACCGGTTTTCCCGGTAATCCGTATTTGCA (site GTCTTCCCTTG)”: the “recombinant UMI read abundance (log10)” value came out at 0. For the sequence “GTGAAGACATGGACCGGTTTTCCCGGTAATCCGTATTTGCA (site AGGAAGACTTG)”, the “recombinant UMI read abundance (log10)” value was determined as 1.26. The result for “GTGAAGACATGGACCGGTTTTCCCGGTAATCCGTATTTGCA (site GTGAAGACTTG)” reads 2.72. The result for “GTGACAACATGGACCGGTTTTCCCGGTAATCCGTATTTGAC (site GTGACAACTGT)” reads 2.91; that for “GTGACACCATGGACCGGTTTTCCCGGTAATCCGTATTTGTT (site GTGACACCTAA)”, 0.00775. Next, “GTGACCCCATGGACCGGTTTTCCCGGTAATCCGTATTTGCC (site GTGACCCCTGG)”: 1.83; “GTGCAAACATGGACCGGTTTTCCCGGTAATCCGTATTTGTG (site GTGCAAACTCA)”: 2.04; “GTGCATCCATGGACCGGTTTTCCCGGTAATCCGTATTTGCA (site GTGCATCCTTG)”: 1.03.

In the case of “GTGCATGCATGGACCGGTTTTCCCGGTAATCCGTATTTGGA (site GTGCATGCTAC)”, the “recombinant UMI read abundance (log10)” value was 0.00401.

With “GTGCATGCATGGACCGGTTTTCCCGGTAATCCGTATTTGGA (site GTGCATGCTCC)”, the “recombinant UMI read abundance (log10)” value is 0.296. With “GTGCATGCATGGACCGGTTTTCCCGGTAATCCGTATTTGGA (site GTGCATGCTGC)”, the “recombinant UMI read abundance (log10)” value is 0. The result for “GTGCATGCATGGACCGGTTTTCCCGGTAATCCGTATTTGGA (site GTGCATGCTTC)” reads 1.28; that for “GTGCATGCATGGACCGGTTTTCCCGGTAATCCGTATTTGGC (site GTGCATGCTAC)”, 0.31. “GTGCATGCATGGACCGGTTTTCCCGGTAATCCGTATTTGGC (site GTGCATGCTCC)”: the “recombinant UMI read abundance (log10)” value was determined as 0.

On to “GTGCATGCATGGACCGGTTTTCCCGGTAATCCGTATTTGGC (site GTGCATGCTGC)”, for which the “recombinant UMI read abundance (log10)” value stood at 2.28. Next, “GTGCATGCATGGACCGGTTTTCCCGGTAATCCGTATTTGGC (site GTGCATGCTTC)”: 0.89; “GTGCATGCATGGACCGGTTTTCCCGGTAATCCGTATTTGGT (site ATGCATGCTAC)”: 0.986; “GTGCATGCATGGACCGGTTTTCCCGGTAATCCGTATTTGGT (site CTGCATGCTAC)”: 0.457. Next, “GTGCATGCATGGACCGGTTTTCCCGGTAATCCGTATTTGGT (site GAGCATGCTAC)”: 0.0372; “GTGCATGCATGGACCGGTTTTCCCGGTAATCCGTATTTGGT (site GCGCATGCTAC)”: 0.271; “GTGCATGCATGGACCGGTTTTCCCGGTAATCCGTATTTGGT (site GGGCATGCTAC)”: 0.00487. Next, “GTGCATGCATGGACCGGTTTTCCCGGTAATCCGTATTTGGT (site GTACATGCTAC)”: 1.47; “GTGCATGCATGGACCGGTTTTCCCGGTAATCCGTATTTGGT (site GTCCATGCTAC)”: 0.00812; “GTGCATGCATGGACCGGTTTTCCCGGTAATCCGTATTTGGT (site GTGAATGCTAC)”: 0. For “GTGCATGCATGGACCGGTTTTCCCGGTAATCCGTATTTGGT (site GTGCAAGCTAC)”, the “recombinant UMI read abundance (log10)” value turned out to be 0.00542.

For “GTGCATGCATGGACCGGTTTTCCCGGTAATCCGTATTTGGT (site GTGCACGCTAC)”, the “recombinant UMI read abundance (log10)” value came to 0.586.

(Values after the supplement of paper PMC11208160.)
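Note: IS621 bridge recombinase in Escherichia coli cells against a fixed T5 target plasmid.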
